# Source: ChEMBL document CHEMBL1147578, “Design, synthesis, and SAR of anthranilamide-based factor Xa inhibitors with improved functional activity” (Bioorg Med Chem Lett, 2004)
# How the values were obtained:
# Coagulation factor X [1] = biological target: T1, Coagulation factor X (Homo sapiens, UniProt P00742); experiment: In vitro inhibitory activity against coagulation factor X.
# Plasminogen = Plasminogen (Homo sapiens, UniProt P00747); experiment: Inhibitory activity against plasmin.
# Prothrombin = Prothrombin (Homo sapiens, UniProt P00734); experiment: Inhibitory activity against thrombin.
# Serine protease 1 = Serine protease 1 (Homo sapiens, UniProt P07477); experiment: Inhibitory activity against trypsin.
# Chain of Serine protease 1 (P07477 whole entry): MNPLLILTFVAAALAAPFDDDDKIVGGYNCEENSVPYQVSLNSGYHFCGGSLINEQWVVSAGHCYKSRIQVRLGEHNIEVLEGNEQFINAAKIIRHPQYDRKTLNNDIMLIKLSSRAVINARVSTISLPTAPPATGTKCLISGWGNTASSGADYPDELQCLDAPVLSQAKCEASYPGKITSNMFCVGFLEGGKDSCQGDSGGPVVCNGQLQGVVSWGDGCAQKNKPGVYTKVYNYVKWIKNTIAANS
# [2] = biological target: Vitamin K-dependent protein C (Homo sapiens, UniProt P04070); experiment: Inhibitory activity against activated protein C
# Chain of Vitamin K-dependent protein C (P04070 43-197 limits assumed): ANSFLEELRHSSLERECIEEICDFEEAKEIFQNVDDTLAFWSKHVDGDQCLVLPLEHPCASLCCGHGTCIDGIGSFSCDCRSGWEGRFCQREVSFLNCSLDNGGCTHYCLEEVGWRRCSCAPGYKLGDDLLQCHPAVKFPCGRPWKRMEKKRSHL
# Chain of Vitamin K-dependent protein C (P04070 212-461 limits assumed): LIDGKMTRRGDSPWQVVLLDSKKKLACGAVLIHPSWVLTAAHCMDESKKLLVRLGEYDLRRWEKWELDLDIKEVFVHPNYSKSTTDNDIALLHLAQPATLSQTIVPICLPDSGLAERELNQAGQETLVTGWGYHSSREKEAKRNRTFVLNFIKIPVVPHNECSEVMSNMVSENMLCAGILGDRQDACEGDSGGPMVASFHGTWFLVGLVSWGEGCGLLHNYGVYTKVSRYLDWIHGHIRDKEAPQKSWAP
# Plasma kallikrein = Plasma kallikrein (Homo sapiens, UniProt P03952); experiment: Inhibitory activity against kallikrein
# Chain of Plasma kallikrein (P03952 20-390 limits assumed): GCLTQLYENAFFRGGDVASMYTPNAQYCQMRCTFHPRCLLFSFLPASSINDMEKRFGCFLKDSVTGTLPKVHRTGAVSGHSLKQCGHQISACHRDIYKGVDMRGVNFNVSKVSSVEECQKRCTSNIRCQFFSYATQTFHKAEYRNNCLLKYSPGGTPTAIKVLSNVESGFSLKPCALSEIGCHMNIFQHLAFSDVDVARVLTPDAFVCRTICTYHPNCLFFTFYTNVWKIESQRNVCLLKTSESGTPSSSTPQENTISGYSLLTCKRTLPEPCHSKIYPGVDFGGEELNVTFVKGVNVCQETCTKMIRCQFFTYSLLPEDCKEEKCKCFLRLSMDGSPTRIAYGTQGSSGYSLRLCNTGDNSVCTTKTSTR
# Chain of Plasma kallikrein (P03952 391-638 limits assumed): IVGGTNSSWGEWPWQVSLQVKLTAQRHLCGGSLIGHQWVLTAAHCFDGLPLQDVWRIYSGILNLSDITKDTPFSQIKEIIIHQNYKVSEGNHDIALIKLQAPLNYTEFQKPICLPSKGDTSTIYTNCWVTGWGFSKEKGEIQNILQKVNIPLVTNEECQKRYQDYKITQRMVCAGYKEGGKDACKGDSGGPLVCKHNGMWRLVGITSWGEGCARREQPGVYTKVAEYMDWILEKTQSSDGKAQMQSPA
# [3] = Oral bioavailability in rat (dose 6 mg/kg); format: ADME, organism-based; settings: in vivo
# Coagulation factor X [4] = biological target: T1, Coagulation factor X; experiment: Inhibitory activity against Coagulation factor X
# [5] = biological target: Tissue-type plasminogen activator (Homo sapiens, UniProt P00750); experiment: Inhibitory activity against tissue type plasminogen activator.
# Chain of Tissue-type plasminogen activator (P00750 whole entry): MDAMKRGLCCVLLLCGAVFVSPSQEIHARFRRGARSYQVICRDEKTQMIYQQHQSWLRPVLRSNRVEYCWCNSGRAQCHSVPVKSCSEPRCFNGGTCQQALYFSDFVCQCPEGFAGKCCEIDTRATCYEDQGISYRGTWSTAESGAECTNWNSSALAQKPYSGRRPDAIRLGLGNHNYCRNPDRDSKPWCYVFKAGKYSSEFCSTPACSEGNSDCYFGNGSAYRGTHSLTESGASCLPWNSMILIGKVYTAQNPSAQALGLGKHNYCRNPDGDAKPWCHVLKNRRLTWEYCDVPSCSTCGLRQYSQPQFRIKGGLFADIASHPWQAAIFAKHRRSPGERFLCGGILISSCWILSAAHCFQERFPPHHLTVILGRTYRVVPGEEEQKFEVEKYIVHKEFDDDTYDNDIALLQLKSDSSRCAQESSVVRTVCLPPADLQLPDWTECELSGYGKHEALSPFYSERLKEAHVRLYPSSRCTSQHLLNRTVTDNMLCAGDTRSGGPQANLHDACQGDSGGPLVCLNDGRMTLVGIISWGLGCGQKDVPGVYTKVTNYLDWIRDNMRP
# Homo sapiens = species on record: Homo sapiens; experiment: Concentration required to double the lag time of maximum thrombin generation in human plasma-based thrombin generation assay; format: functional
# Coagulation factor X [6] = biological target: T1, Coagulation factor X; experiment: In vitro inhibitory activity against Coagulation factor X
# [7] = Plasma clearance after intravenous administration of 0.4 mg/kg of dose in rats was determined; format: ADME, organism-based; parameters: dose 0.4 mg/kg, route intravenous; settings: rat
# [8] = Half life after intravenous administration was determined in rats at 0.4 mg/kg; settings: rat, in vivo
# [9] = Oral bioavailability in rats at 6 mg/kg; format: ADME, organism-based; settings: rat, in vivo
# Rattus norvegicus [10] = experiment: Volume of distribution after intravenous administration of 0.4 mg/kg of dose in rats was determined; settings: in vivo
# Rattus norvegicus [11] = species on record: Rattus norvegicus; experiment: Effective dose required for antithrombotic activity in rat vena cava stasis model; format: functional
# [12] = Oral bioavailability in dog; format: ADME, organism-based, Canis lupus familiaris; settings: in vivo
# Oryctolagus cuniculus [13] = species on record: Oryctolagus cuniculus; experiment: Percent inhibition of thrombus formation in rabbit deep vein thrombosis at 0.83 uM; format: functional
# Oryctolagus cuniculus [14] = species on record: Oryctolagus cuniculus; experiment: Percent inhibition of thrombus formation in rabbit deep vein thrombosis at 0.25 uM; format: functional
# Chain of Plasminogen (P00747 97-580 limits assumed): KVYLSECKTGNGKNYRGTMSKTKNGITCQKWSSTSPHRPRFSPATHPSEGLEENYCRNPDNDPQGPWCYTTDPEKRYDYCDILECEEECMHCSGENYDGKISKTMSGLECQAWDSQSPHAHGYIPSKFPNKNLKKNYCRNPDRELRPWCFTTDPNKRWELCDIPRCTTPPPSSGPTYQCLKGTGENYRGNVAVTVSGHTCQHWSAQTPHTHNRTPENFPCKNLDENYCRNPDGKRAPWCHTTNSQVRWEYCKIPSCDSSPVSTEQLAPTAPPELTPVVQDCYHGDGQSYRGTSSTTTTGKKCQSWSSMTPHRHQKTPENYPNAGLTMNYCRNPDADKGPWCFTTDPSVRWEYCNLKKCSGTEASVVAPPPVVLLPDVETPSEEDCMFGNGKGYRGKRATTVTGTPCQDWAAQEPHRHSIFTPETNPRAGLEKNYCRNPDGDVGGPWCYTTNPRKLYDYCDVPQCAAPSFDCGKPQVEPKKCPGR
# Chain of Plasminogen (P00747 581-810 limits assumed): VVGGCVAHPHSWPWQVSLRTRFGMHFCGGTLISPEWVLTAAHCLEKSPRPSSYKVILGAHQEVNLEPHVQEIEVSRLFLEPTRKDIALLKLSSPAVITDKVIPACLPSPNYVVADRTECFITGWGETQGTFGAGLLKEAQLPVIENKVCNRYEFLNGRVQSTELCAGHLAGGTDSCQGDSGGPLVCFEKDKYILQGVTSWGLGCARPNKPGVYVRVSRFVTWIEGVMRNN
# T1 sequence (P00742 41-179 limits assumed): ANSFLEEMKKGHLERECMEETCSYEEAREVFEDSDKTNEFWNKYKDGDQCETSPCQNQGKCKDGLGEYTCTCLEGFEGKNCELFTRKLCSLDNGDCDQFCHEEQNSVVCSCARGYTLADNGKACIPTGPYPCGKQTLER
# T1 sequence (P00742 235-488 limits assumed): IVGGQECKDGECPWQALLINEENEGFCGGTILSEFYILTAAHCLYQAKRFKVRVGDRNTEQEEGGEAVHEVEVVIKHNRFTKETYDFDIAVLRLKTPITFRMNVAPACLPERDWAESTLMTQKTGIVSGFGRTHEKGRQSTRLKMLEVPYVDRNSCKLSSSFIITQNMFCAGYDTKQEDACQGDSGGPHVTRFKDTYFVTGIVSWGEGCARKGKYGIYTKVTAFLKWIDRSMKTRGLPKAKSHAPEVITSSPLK
Compound,IC50 (Coagulation factor X [1]),IC50 (Plasminogen),IC50 (Prothrombin),IC50 (Serine protease 1),IC50 [2],IC50 (Plasma kallikrein),bioavailability [3],Ki (Coagulation factor X [4]),IC50 [5],Ki (Coagulation factor X [6]),clearance [7],half-life [8],bioavailability [9],Volume of distribution (Rattus norvegicus [10]),bioavailability [12],Activity (Homo sapiens),ED50 (Rattus norvegicus [11]),Inhibition (Oryctolagus cuniculus [13]),Inhibition (Oryctolagus cuniculus [14])
N=C1NCCN1Cc1ccc(C(=O)Nc2ccc(Cl)cc2C(=O)Nc2ccc(Cl)cn2)cc1,0.0015 µM,> 11 µM,> 11 µM,> 11 µM,> 11 µM,0.21 µM,< 1%,,> 11 µM,0.0005 µM,,,,,,0.58 µM,,,
CN(C)Cc1ccc(C(=O)Nc2ccc(Cl)cc2C(=O)Nc2ccc(Cl)cn2)cc1,,> 11 µM,> 11 µM,> 11 µM,> 11 µM,0.5 µM,,,> 11 µM,,20.6 mL/min/kg,7.5 h,100%,32.9 L/kg,,3.2 µM,,,
CN1CCN=C1N(C)Cc1ccc(C(=O)Nc2ccc(Cl)cc2C(=O)Nc2ccc(Cl)cn2)cc1,0.0003 µM,> 11 µM,> 11 µM,> 11 µM,> 11 µM,0.3 µM,< 1%,,> 11 µM,0.0003 µM,,,,,,0.3 µM,,,
C[N+](C)(C)Cc1ccc(C(=O)Nc2ccc(Cl)cc2C(=O)Nc2ccc(Cl)cn2)cc1,0.0008 µM,> 11 µM,> 11 µM,> 11 µM,> 11 µM,0.13 µM,< 1%,,> 11 µM,0.001 µM,,,,,,0.3 µM,,,

# The next lines start with results.
IC50 (Coagulation factor X [1]),IC50 (Plasminogen),IC50 (Prothrombin),IC50 (Serine protease 1),IC50 [2],IC50 (Plasma kallikrein),bioavailability [3],Ki (Coagulation factor X [4]),IC50 [5],Ki (Coagulation factor X [6]),clearance [7],half-life [8],bioavailability [9],Volume of distribution (Rattus norvegicus [10]),bioavailability [12],Compound,Activity (Homo sapiens),ED50 (Rattus norvegicus [11]),Inhibition (Oryctolagus cuniculus [13]),Inhibition (Oryctolagus cuniculus [14])
0.0009 µM,> 11 µM,> 11 µM,> 11 µM,> 11 µM,0.64 µM,4%,0.0003 µM,> 11 µM,,,,,,,CN(C)NCc1ccc(C(=O)Nc2ccc(Cl)cc2C(=O)Nc2ccc(Cl)cn2)cc1,1.5 µM,,,
0.001 µM,> 11 µM,> 11 µM,> 11 µM,> 11 µM,0.38 µM,< 1%,,> 11 µM,0.0001 µM,,,,,,CN(Cc1ccc(C(=O)Nc2ccc(Cl)cc2C(=O)Nc2ccc(Cl)cn2)cc1)C(=N)N,0.38 µM,,,
0.0007 µM,> 11 µM,> 11 µM,> 11 µM,> 11 µM,0.79 µM,,,> 11 µM,0.0002 µM,,,,,,C/N=C(/N)N(C)Cc1ccc(C(=O)Nc2ccc(Cl)cc2C(=O)Nc2ccc(Cl)cn2)cc1,0.79 µM,,,
,> 11 µM,> 11 µM,> 11 µM,> 11 µM,0.5 µM,< 1%,,> 11 µM,,,,,,,CC(=N)N(C)Cc1ccc(C(=O)Nc2ccc(Cl)cc2C(=O)Nc2ccc(Cl)cn2)cc1,0.5 µM,,,
,,,,,,,,,,,,,,40%,COc1cc(Cl)cc(C(=O)Nc2ccc(Cl)cn2)c1NC(=O)c1scc(CN(C)C2=NCCO2)c1Cl,,0.8 µM,,
,> 11 µM,> 11 µM,> 11 µM,> 11 µM,0.56 µM,44%,,> 11 µM,,18.3 mL/min/kg,8.5 h,,13.6 L/kg,,N=C1OCCN1Cc1ccc(C(=O)Nc2ccc(Cl)cc2C(=O)Nc2ccc(Cl)cn2)cc1,0.56 µM,,40%,25%
